The values below come from US20260015358A1, “BICYCLIC DERIVATIVES, COMPOSITIONS AND USES THEREOF” (Danatlas Pharmaceuticals Co., Ltd., priority 2023, published 2026).

Some results are limits rather than exact numbers.

Experiment [1] addresses T1, WRN [UniPro: Q14191 (WRN_HUMAN), N500-C946] (Homo sapiens (Human), UniProt Q14191). The experiment is described as follows: WRN ATPase assay (ADP-Glo). It is filed as biochemical. Conditions: WRN enzymatic activity assay. On the technique in general: ADP-Glo first removes unused ATP, then detects ADP through luciferase.
For experiment [2], the target named is T1, WRN [UniPro: Q14191 (WRN_HUMAN), N500-C946]. The experiment in a line: WRN unwinding assay (FORKF DNA, fluorescence). It is filed as biochemical. Conditions: Table 14.

T1 sequence (Q14191 500-946): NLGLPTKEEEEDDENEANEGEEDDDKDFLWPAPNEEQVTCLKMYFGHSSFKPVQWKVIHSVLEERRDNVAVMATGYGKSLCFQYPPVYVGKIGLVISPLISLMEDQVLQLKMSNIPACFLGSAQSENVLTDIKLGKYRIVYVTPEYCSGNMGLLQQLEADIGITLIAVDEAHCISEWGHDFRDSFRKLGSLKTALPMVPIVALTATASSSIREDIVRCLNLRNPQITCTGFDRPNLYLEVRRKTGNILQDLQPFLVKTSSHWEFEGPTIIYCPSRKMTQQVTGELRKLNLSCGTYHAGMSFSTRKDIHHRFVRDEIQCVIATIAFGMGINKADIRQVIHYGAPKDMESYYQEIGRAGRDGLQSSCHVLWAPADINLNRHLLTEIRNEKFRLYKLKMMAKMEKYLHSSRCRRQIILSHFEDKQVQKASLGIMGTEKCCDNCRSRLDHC

What is called IC50 is the point on the concentration scale where inhibition reaches its midpoint. Higher therefore signals weaker potency. Take `CCc1c(N2CCN(C(=O)CNC)CC2)c(=O)n2nc(C3=CCOCC3)nc2n1CC(=O)Nc1ccc(C(F)(F)F)cc1Cl` [Example 134, N-(2-Chloro-4-(trifluoromethyl)phenyl)-2-(2-(3,6-dihydro-2H-pyran-4-yl)-5-ethyl-6-(4-(methylglycyl)piperazin-1-yl)-7-oxo-[1,2,4]triazolo[1,5-a]pyrimidin-4(7H)-yl)acetamide]: the concentration for half-maximal inhibition (IC50) in experiment [1] and in experiment [2] was less than 100 nM throughout.
As to `CCc1c(N2CCN(C(=O)C(C)NC(=O)c3ccccc3)CC2)c(=O)n2nc(C3=CCOCC3)nc2n1CC(=O)Nc1ccc(C(F)(F)F)cc1Cl` (stereo not drawn) [Example 136, N-(1-(4-(4-(2-((2-Chloro-4-(trifluoromethyl)phenyl)amino)-2-oxoethyl)-2-(3,6-dihydro-2H-pyran-4-yl)-5-ethyl-7-oxo-4,7-dihydro-[1,2,4]triazolo[1,5-a]pyrimidin-6-yl)piperazin-1-yl)-1-oxopropan-2-yl)benzamide], the IC50 in experiment [1] was less than 100 nM; in experiment [2], 100 to 1000 nM.
Turning to `[2H]C([2H])(NC(=O)c1ccccc1F)C(=O)N1CCN(c2c(CC)n(CC(=O)Nc3ccc(C(F)(F)F)cc3Cl)c3nc(N4CCOCC4)nn3c2=O)CC1` [Example 138, N-(2-(4-(4-(2-((2-Chloro-4-(trifluoromethyl)phenyl)amino)-2-oxoethyl)-5-ethyl-2-morpholino-7-oxo-4,7-dihydro-[1,2,4]triazolo[1,5-a]pyrimidin-6-yl)piperazin-1-yl)-2-oxoethyl-1,1-d2)-2-fluorobenzamide], the IC50 in experiment [1] and in experiment [2] was less than 100 nM in each case.
Take `CCc1c(N2CCC(NC(=O)CNC(=O)c3ccccc3)CC2)c(=O)n2nc(C3=CCOCC3)nc2n1CC(=O)Nc1ccc(C(F)(F)F)cc1Cl` [Example 141, N-(2-((1-(4-(2-((2-Chloro-4-(trifluoromethyl)phenyl)amino)-2-oxoethyl)-2-(3,6-dihydro-2H-pyran-4-yl)-5-ethyl-7-oxo-4,7-dihydro-[1,2,4]triazolo[1,5-a]pyrimidin-6-yl)piperidin-4-yl)amino)-2-oxoethyl)benzamide]: the half-maximal inhibitory concentration (IC50) in experiment [1] and in experiment [2] was more than 1000 nM each time.
Consider `CCc1c(N2CCN(C(=O)CNC(=O)c3ccccc3)CC2)c(=O)n2nc(C3=CCOCC3)nc2n1CC(=O)N(C)c1ccc(C(F)(F)F)cc1Cl` [Example 143, N-(2-(4-(4-(2-((2-Chloro-4-(trifluoromethyl)phenyl)(methyl)amino)-2-oxoethyl)-2-(3,6-dihydro-2H-pyran-4-yl)-5-ethyl-7-oxo-4,7-dihydro-[1,2,4]triazolo[1,5-a]pyrimidin-6-yl)piperazin-1-yl)-2-oxoethyl)benzamide], for which the IC50 in experiment [1] is 100 to 1000 nM; in experiment [2] it was more than 1000 nM.
For `CCc1c(N2CCN(C(=O)CNC(=O)c3ccccc3F)CC2)c(=O)n2nc(C3=CCOCC3)nc2n1CC(=O)Nc1cc(F)c(C(F)(F)F)cc1C` [Example 144, N-(2-(4-(2-(3,6-Dihydro-2H-pyran-4-yl)-5-ethyl-4-(2-((5-fluoro-2-methyl-4-(trifluoromethyl)phenyl)amino)-2-oxoethyl)-7-oxo-4,7-dihydro-[1,2,4]triazolo[1,5-a]pyrimidin-6-yl)piperazin-1-yl)-2-oxoethyl)-2-fluorobenzamide] the same measures were 100 to 1000 nM and less than 100 nM.
In the case of `CCc1c(N2CCN(C(=O)c3cnn4cccc4c3O)CC2)c(=O)n2nc(C3=CCOCC3)nc2n1CC(=O)Nc1sc(C)cc1Br` [Example 146, N-(3-Bromo-5-methylthiophen-2-yl)-2-(2-(3,6-dihydro-2H-pyran-4-yl)-5-ethyl-6-(4-(4-hydroxypyrrolo[1,2-b]pyridazine-3-carbonyl)piperazin-1-yl)-7-oxo-[1,2,4]triazolo[1,5-a]pyrimidin-4(7H)-yl)acetamide], the concentration for half-maximal inhibition (IC50) in experiment [1] and in experiment [2] was 100 to 1000 nM each time.
With `CCc1c(N2CCN(C(=O)CNC(=O)c3ccccc3F)CC2)c(=O)n2nc(C3=CCOCC3)nc2n1CC(=O)Nc1ccc(C(F)(F)F)cc1C` [Example 147, N-(2-(4-(2-(3,6-Dihydro-2H-pyran-4-yl)-5-ethyl-4-(2-((2-methyl-4-(trifluoromethyl)phenyl)amino)-2-oxoethyl)-7-oxo-4,7-dihydro-[1,2,4]triazolo[1,5-a]pyrimidin-6-yl)piperazin-1-yl)-2-oxoethyl)-2-fluorobenzamide], the IC50 in experiment [1] and in experiment [2] was less than 100 nM throughout.
As for `CCc1c(N2CCN(C(=O)CNC(=O)c3ccccc3F)CC2)c(=O)n2nc(C3=CCOCC3)nc2n1CC(=O)Nc1ccc(C(F)(F)F)cc1` [Example 148, N-(2-(4-(2-(3,6-Dihydro-2H-pyran-4-yl)-5-ethyl-7-oxo-4-(2-oxo-2-((4-(trifluoromethyl)phenyl)amino)ethyl)-4,7-dihydro-[1,2,4]triazolo[1,5-a]pyrimidin-6-yl)piperazin-1-yl)-2-oxoethyl)-2-fluorobenzamide], the IC50 in experiment [1] and in experiment [2] was less than 100 nM in each case.
As for `CCc1c(N2CCN(C(=O)CNC(=O)c3ccccc3F)CC2)c(=O)n2nc(C3=CCOCC3)nc2n1CC(=O)Nc1ccc(C(F)(F)F)cc1F` [Example 149, N-(2-(4-(2-(3,6-Dihydro-2H-pyran-4-yl)-5-ethyl-4-(2-((2-fluoro-4-(trifluoromethyl)phenyl)amino)-2-oxoethyl)-7-oxo-4,7-dihydro-[1,2,4]triazolo[1,5-a]pyrimidin-6-yl)piperazin-1-yl)-2-oxoethyl)-2-fluorobenzamide], the IC50 in experiment [1] and in experiment [2] was less than 100 nM in each case.
`CCc1c(N2CCN(C(=O)CNC(=O)c3ccccc3F)CC2)c(=O)n2nc(C3=CCOCC3)nc2n1CC(=O)Nc1ccc(F)cc1F` [Example 150, N-(2-(4-(4-(2-((2,4-Difluorophenyl)amino)-2-oxoethyl)-2-(3,6-dihydro-2H-pyran-4-yl)-5-ethyl-7-oxo-4,7-dihydro-[1,2,4]triazolo[1,5-a]pyrimidin-6-yl)piperazin-1-yl)-2-oxoethyl)-2-fluorobenzamide]: the IC50 in experiment [1] and in experiment [2] was less than 100 nM throughout.
As for `CCc1c(N2CCN(C(=O)CNC(=O)c3ccccc3F)CC2)c(=O)n2nc(C3=CCOCC3)nc2n1CC(=O)Nc1sc(C)cc1Br` [Example 152, N-(2-(4-(4-(2-((3-bromo-5-methylthiophen-2-yl)amino)-2-oxoethyl)-2-(3,6-dihydro-2H-pyran-4-yl)-5-ethyl-7-oxo-4,7-dihydro-[1,2,4]triazolo[1,5-a]pyrimidin-6-yl)piperazin-1-yl)-2-oxoethyl)-2-fluorobenzamide], the IC50 is 100 to 1000 nM in experiment [1] and less than 100 nM in experiment [2].
For `CCc1c(N2CCN(C(=O)CNC(=O)c3ccccc3F)CC2)c(=O)n2nc(C3=CCOCC3)nc2n1CC(=O)Nc1ccc(C)s1` [Example 153, N-(2-(4-(2-(3,6-Dihydro-2H-pyran-4-yl)-5-ethyl-4-(2-((5-methylthiophen-2-yl)amino)-2-oxoethyl)-7-oxo-4,7-dihydro-[1,2,4]triazolo[1,5-a]pyrimidin-6-yl)piperazin-1-yl)-2-oxoethyl)-2-fluorobenzamide] the same measures were 100 to 1000 nM and less than 100 nM.
For `CCc1c(N2CCN(C(=O)CNC(=O)c3ccccc3F)CC2)c(=O)n2nc(C3=CCOCC3)nc2n1CC(=O)Nc1cc(C)cs1` [Example 154, N-(2-(4-(2-(3,6-Dihydro-2H-pyran-4-yl)-5-ethyl-4-(2-((4-methylthiophen-2-yl)amino)-2-oxoethyl)-7-oxo-4,7-dihydro-[1,2,4]triazolo[1,5-a]pyrimidin-6-yl)piperazin-1-yl)-2-oxoethyl)-2-fluorobenzamide] the same measures were less than 100 nM and less than 100 nM.
For `CCc1c(N2CCN(C(=O)CNC(=O)c3ccccc3F)CC2)c(=O)n2nc(C3=CCOCC3)nc2n1CC(=O)Nc1cnc(C(F)(F)F)s1` [Example 157, N-(2-(4-(2-(3,6-Dihydro-2H-pyran-4-yl)-5-ethyl-7-oxo-4-(2-oxo-2-((2-(trifluoromethyl)thiazol-5-yl)amino)ethyl)-4,7-dihydro-[1,2,4]triazolo[1,5-a]pyrimidin-6-yl)piperazin-1-yl)-2-oxoethyl)-2-fluorobenzamide] the same measures were less than 100 nM and less than 100 nM.
For the compound `CCc1c(N2CCN(C(=O)CNC(=O)c3ccccc3F)CC2)c(=O)n2nc(C3=CCOCC3)nc2n1CC(=O)Nc1cc(Br)cs1` [Example 161, N-(2-(4-(4-(2-((4-Bromothiophen-2-yl)amino)-2-oxoethyl)-2-(3,6-dihydro-2H-pyran-4-yl)-5-ethyl-7-oxo-4,7-dihydro-[1,2,4]triazolo[1,5-a]pyrimidin-6-yl)piperazin-1-yl)-2-oxoethyl)-2-fluorobenzamide], the 50% inhibitory concentration (IC50) in experiment [1] and in experiment [2] was less than 100 nM throughout.
Regarding `CCc1c(N2CCN(C(=O)CNC(=O)c3ccccc3F)CC2)c(=O)n2nc(C3=CCOCC3)nc2n1CC(=O)Nc1cc(C(F)(F)F)n(C)n1` [Example 162, N-(2-(4-(2-(3,6-Dihydro-2H-pyran-4-yl)-5-ethyl-4-(2-((1-methyl-5-(trifluoromethyl)-1H-pyrazol-3-yl)amino)-2-oxoethyl)-7-oxo-4,7-dihydro-[1,2,4]triazolo[1,5-a]pyrimidin-6-yl)piperazin-1-yl)-2-oxoethyl)-2-fluorobenzamide], the IC50 in experiment [1] and in experiment [2] was 100 to 1000 nM each time.
Regarding `CCc1c(N2CCN(C(=O)CNC(=O)c3ccccc3F)CC2)c(=O)n2nc(C3=CCOCC3)nc2n1CC(=O)Nc1ccc(C(F)(F)F)nc1Cl` [Example 163, N-(2-(4-(4-(2-((2-Chloro-6-(trifluoromethyl)pyridin-3-yl)amino)-2-oxoethyl)-2-(3,6-dihydro-2H-pyran-4-yl)-5-ethyl-7-oxo-4,7-dihydro-[1,2,4]triazolo[1,5-a]pyrimidin-6-yl)piperazin-1-yl)-2-oxoethyl)-2-fluorobenzamide], the IC50 in experiment [1] and in experiment [2] was less than 100 nM each time.
